Values of other authors as cited in patent EP1195160B1, “Sustained release trimetazidine pharmaceutical compositions and a method of their preparation” (USV Ltd., priority 2000, dated 2002).
Where two headings read alike, the source gives them in different places.

Assays:
[1] = 80mg dose, prolonged release coated reservoir system of EP 0 673 649, 12 volunteers
[2] = value from the literature
[3] = 20mg, single dose administration
[4] = oral, immediate release preparation

## COc1ccc(CN2CCNCC2)c(OC)c1OC.Cl.Cl [Trimetazidine dihydrochloride, 1-(2,3,4-trimethoxybenzyl)-piperazine dihydrochloride]
[1]
  steady state plasma concentration (Css): around 110 ng/ml
[2]
  Elimination half life t 1/2: t 1/2 = 6.0 hours.
  Plasma concentration Css: Css = 84ng/ml
  T max: T max = 1.8 ± 0.7 hours.
  Volume of distribution Vd: Vd = 294 litres.
[3]
  maximum plasma concentration Cmax: 53.6 ± 9.0 ng/mL
[4]
  T max: around 1.8 ± 0.7 hours
  plasma half life: around 6.0 ± 1.4 hours
